Patent US20100055169A1, “CATIONIC LIPIDS AND USES THEREOF” (ABBOTT LABORATORIES, priority 2008, published 2010)

Legend:
[1] = test system: β-galactosidase in tumor sections; assay: IHC analysis of β-galactosidase staining in intraliver tumors after i.v. dosing of Lipid-Based Particles; format: in vivo, Scid female mice; settings: intraliver tumor model, Scid mice, tail vein (i.v) injection
Description: The animal studies were carried out in accordance with internal Institutional Animal Care and Use Committee (IACUC) guidelines at Abbott Laboratories. Scid female mice at 6 to 8 weeks of age were obtained from Charles River Laboratory and used for […] tumor models. Mouse livers were exposed by vertical incision on mouse abdomens and the tumor cells were directly injected into the livers. The incision was closed by suture and wound clips. All cell lines used for creating xenograft tumors were subjected to the IMPACT profile I test (18 agents) at the University of Missouri Research Animal Diagnostic and Investigative Laboratory, and all cell lines were found negative for the 18 infectious agents tested. Tumor cells were suspended in a 1:1 mixture of S-MEM (Invitrogen, Carlsbad, Calif.) and matrigel (BD Bioscience, San Jose, Calif.) and inoculated at 1×10E6 cells per animal. Treatments were started 3 4 weeks after tumor inoculation. Formulated or unformulated siRNAs were administrated via tail vein (i.v) injection. IHC was carried out as previously described [Li, L., et al., Evaluating hypoxia-inducible factor-1alpha as a cancer therapeutic target via inducible RNA interference in vivo. Cancer Res, 2005. 65(16): p. 7249-58]. Briefly, tumors were excised, cut into pieces of less than 3 mm in thickness and immediately fixed in buffered formalin solution with neutral pH (Sigma, St. Louis, Mo.). The formalin-fixed and paraffin-embedded tumor sections were then used for staining. The mouse anti-β-galactosidase mAb (Promega, Madison, Wis.) was used to detect β-galactosidase in tumor sections. […] IHC images were acquired using the Nikon TE2000 inverted microscope. The β-galactosidase staining was evaluated by 2 people independently based on the scoring system listed below. The average of the score was calculated for each tumor.

[2] = Particle sizing by dynamic light scattering (DynaPro plate reader), in vitro formulations; format: physicochemical; settings: in vitro formulation b: Cationic lipid/PEG-cholesterol/DSPC/Chol 45/10/15/30 wt %, lipid:siRNA 25:1
Description: (§1) The siRNA concentrations were measured using Quanti-iT RiboGreen RNA reagent (Molecular Probes, (R11490)). Vesicle sizes were characterized by dynamic light scattering with a DynaPro™ Plate Reader (Wyatt Technology) in 96-well half-area UV plate (Coring) after diluting the formulation sample (20 μL) in phosphate buffered saline (80 μL) at a pH of about 7-8. A 1% agarose gel-based assay was used for analyzing nuclease degradation and protection. Encapsulation efficiency (EE) was calculated using data obtained from a RiboGreen assay.
Particle sizes and size distributions (PDI) were characterized by using dynamic light scattering (DLS). A DLS plate reader (Dynapro™, Wyatt Technology) was used for the DLS measurement. This DLS plate reader uses an 830 nm laser and the scattering angle is 158°. It also can control temperature from 4° C. to 70° C. A 96-well format was employed for the samples.
Samples for DLS analysis were prepared by mixing 20 μL of each sample stock solution with 80 μL PBS directly in the 96-well plate (#3697, Corning). Sample mixing was accomplished using a microplate shaker (Orbis, Mikura Ltd.). Plates were read at 20° C. with an acquisition time of 50 seconds for each sample, and data was analyzed with Wyatt Technology's Dynamics V6 software. To rule out potential multiple scattering artifacts, a second plate at 4-fold reduced sample concentrations was independently prepared by mixing 5 μL stock solutions with 95 μL PBS. Under our experimental conditions the results at the two concentrations were very similar, and the final reported result for each sample represents the average of values obtained from the two plates.

[3] = RiboGreen assay of siRNA encapsulation efficiency, in vivo formulations of Lipid-Based Particles; format: physicochemical; settings: lipid:siRNA 25:1
Description: (§2) RNA concentration and encapsulation efficiency were determined using a Quant-iT® Ribogreen RNA reagent and kit available from Invitrogen. The siRNA was released from the Lipid-Based Particle using one of the following reagents: ethanol, Triton X-100, or phenol/chloroform. The siRNA concentration is quantified using fluorescent reading at 480 nm/520 nm.
The lipid solution was prepared (10 mg/ml) by dissolving the lipid in 200 proof ethanol. The lipid mixture solution is prepared according to the above composition in Table 5.
An siRNA (TetR_ODC—12, G.G.G.G.A.A.A.G.C.U.G.G.C.A.A.G.A.U.U.U.U SEQ ID NO: 1) (ThermoFisher) solution is prepared in a concentration of 10 mg/ml by dissolving 10 mg siRNA in 1 ml of DNAse/RNAse-free distilled water.
(§3) A round bottom flask was submerged into a 65° C. water bath. Citrate buffer (37.5 ml) of pH 4.0 was pipetted into the flask. The solution was stirred by a magnetic stirring bar at a speed of 900 rpm. Both the pH 4.0 citrate buffer and the lipid solution were pre-warmed in the 65° C. water bath for about 3 minutes. A siRNA solution (0.5 ml) was pipetted into the pH 4.0 citrate buffer. The 12.5 ml lipid mixture solution was injected through a 27 gauge needle into the citrate buffer in about 30 seconds. The needle tip was inserted into the solution during the injection. The resulting solution was stirred for 5 minutes at a speed of 900 rpm. The flask was pulled up from the water bath and a 50 ml pH 7.4 PBS buffer was added into the flask. The final solution was further mixed at a speed of 900 rpm for 5 minutes. For the diafiltration process, a dialysis filter (Millipore, 100K, Cat#PXB100C50) was used to remove ethanol in the above solution. When the volume was reduced to 20 ml during the initial diafiltration, 20 ml of pH 7.4 PBS was added to the sample solution. The diafiltration was continued until the volume was reduced to 20 ml. The diafiltration process was repeated 4 times. The volume of the sample solution was reduced to about 12 ml and pH 7.4 PBS was added to make the final volume of 15 ml. The 15 ml solution was filtered sequentially through the 0.45 and 0.22 μm sterile PVDF membrane filters (Millipore) and immediately transferred into a sterile vial.

[4] = RiboGreen assay of siRNA encapsulation efficiency, in vitro formulations of Lipid-Based Particles; format: physicochemical; settings: in vitro formulation b: Cationic lipid/PEG-cholesterol/DSPC/Chol 45/10/15/30 wt %, lipid:siRNA 25:1
Description: The mixing solution of cationic lipids, cholesterol, non-cationic lipids and PEG-lipids was prepared in ethanol (total concentration at 10 mg/mL). siSTABLE (purchased from ThermoFisher) (sense-5′ GGGGAAAGCUGGCAAGAUUUU-3′SEQ ID NO. 1, antisense-5′-AAUCUUGCCAGCUUUCCCCUU-3′ SEQ ID NO: 2) % stock solution was prepared in 10 mg/mL of solution by dissolving 10 mg siRNA in 1 mL of RNAse-free UltraPure Water. The calculated amount of siRNA solution was added to 1 mL of citrate buffer (pH 4.0, 20 mM), to provide an siRNA concentration of 0.2 mg/mL, and warmed to 60 C. The calculated amount of lipid solution was warmed to 60 C, transferred to a 0.5 mL syringe with 28½ gauge needle, and injected into the citrate buffer with stirring at 60 C. After 3 minutes, 3 mL of PBS solution at room temperature (pH 7.4) was added into the lipid mixture with stirring. The Lipid-Based Particle solution was cooled to room temperature.
as §1, §2

[5] = Particle sizing assay (Zetasizer Nano ZS), in vivo formulations; format: physicochemical; settings: lipid:siRNA 25:1
Description: as §3
For measurements of particle sizes and size distributions (PDI), lipid-based particles were prepared as described above. The particle solution (60 μL) was pipetted into a disposable cuvette (UVette, Eppendorf, cat#952010051) and measured in the “General Purpose” mode. Attenuator and position were optimized by the device. Measurements were performed using a Zetasizer Nano ZS (Malvern Instruments) equipped with a 4 mW He—Ne laser at a wavelength of 633 nm at 25° C. Scattered light was detected at a 173° backward scattering angle. The viscosity and refractive index of water at 25° C. was used for data analysis with the Dispersion Technology Software 5.00 (Malvern Instruments).

[6] = in vivo formulation A: Cationic lipid/Example 73/DSPC/Chol 45/10/15/30 wt %
[7] = in vivo formulation I: Cationic lipid/PEG-DPPE/DSPC/Chol 45/10/15/30 wt %
[8] = in vivo formulation J: Cationic lipid/PEG-DSPE/DSPC/Chol 45/10/15/30 wt %
[9] = in vivo formulation L: Cationic lipid/PEG-DPG/DSPC/Chol 45/10/15/30 wt %
[10] = in vivo formulation C: Cationic lipid/Pal-PEG-Cera/DSPC/Chol 45/10/15/30 wt %

With `C[C@H]1c2cccc(O)c2C(=O)C2=C(O)[C@]3(O)C(=O)C(C(N)=O)=C(O)[C@@H](N(C)C)[C@@H]3[C@@H](O)[C@@H]21` [Doxycycline] the “In vivo response: β-galactosidase IHC staining score” value (“In vivo response” below) ([1]; column 1) was “+++ (there was 80% of the section with strong straining)”, the “In vivo response” value ([1]; column 2) was “+++ (there was 80% of the section with strong straining)” and the “In vivo response” value ([1]; column 3) was “+++ (there was 80% of the section with strong straining)”. The “In vivo response” value ([1]; column 4) was “+++ (there was 80% of the section with strong straining)”, the “In vivo response” value ([1]; column 5) was “+++ (there was 80% of the section with strong straining)” and the “In vivo response” value ([1]; column 6) was “+++ (there was 80% of the section with strong straining)”.

For `CCCCC/C=C\C/C=C\CCCCCCCCOCC(CCN(C)CCOC)OCCCCCCCC/C=C\C/C=C\CCCCC` (centres unmarked) [Example 7, N-(2-methoxyethyl)-N-methyl-3,4-bis[(9Z,12Z)-octadeca-9,12-dienyloxy]butan-1-amine], the Size [2] was 123.2 nm, the “% Encapsulation Efficiency” value [3, 6] was 74% and the “% Encapsulation Efficiency” value [4] was 96.9%. The Size [5, 6] was 140 nm and the “Size distribution (PDI)” value [5, 6] was “(0.15)”.

With `CCCCC/C=C\C/C=C\CCCCCCCCOCC(CCN(C)CCN(C)C)OCCCCCCCC/C=C\C/C=C\CCCCC` (centres unmarked) [Example 9, N-{3,4-bis[(9Z,12Z)-octadeca-9,12-dienyloxy]butyl}-N,N′,N′-trimethylethane-1,2-diamine] the Size [2] was 105.8 nm, the “% Encapsulation Efficiency” value [3, 6] was 87.5% and the “% Encapsulation Efficiency” value [3, 7] was 98%. The “% Encapsulation Efficiency” value [3, 8] was 98%, the “% Encapsulation Efficiency” value [3, 9] was 98% and the “% Encapsulation Efficiency” value [4] was 88.3%. For the same compound, the Size [5, 6] was 160 nm, the “Size distribution (PDI)” value [5, 6] was “(0.19)” and the Size [5, 7] was 93.4 nm. For the same compound, the “Size distribution (PDI)” value [5, 7] was “(0.069)”, the Size [5, 8] was 98.1 nm and the “Size distribution (PDI)” value [5, 8] was “(0.078)”. The Size [5, 9] was 98.7 nm and the “Size distribution (PDI)” value [5, 9] was “(0.056)”.

For `CCCCC/C=C\C/C=C\CCCCCCCCOCC(CCN1CCC(N(C)C)C1)OCCCCCCCC/C=C\C/C=C\CCCCC` (centres unmarked) [Example 17, 1-{3,4-bis[(9Z,12Z)-octadeca-9,12-dienyloxy]butyl}-N,N-dimethylpyrrolidin-3-amine], the Size [2] was 114.4 nm, the “% Encapsulation Efficiency” value [3, 10] was 97% and the “% Encapsulation Efficiency” value [4] was 86.2%. For the same compound, the Size [5, 6] was 149 nm, the “Size distribution (PDI)” value [5, 6] was “(0.21)” and the Size [5, 10] was 101 nm. The “Size distribution (PDI)” value [5, 10] was “(0.154)”.
